The values that follow are results of earlier work, collected in EP0268927A2, “Resin-coated, non-sorptive granular, pesticidal compositions and method for the preparation thereof” (priority 1986, dated 1988).

Molecules are shown by their SMILES.

The subject of this data set is rats. Particulars: technical grade.

For `CCOP(=S)(OCC)SCSCC` [phorate, 0,0-diethyl-S-(ethylthiomethyl)phosphorodithioate], the “acute oral LD50 value in rats” value is 1.6-3.7 mg technical/kg.
